Literature values in patent publication US20100022659A1, “Methods and Compositions for the Treatment of CNS-Related Conditions” (priority 2004, published 2010).
Where two headings read alike, the source gives them in different places.

Conditions: humans, cited from earlier work
[1] = MAO inhibitors/GAPDHais, Table 2

Row | Molecule | Human PK (NMDAr antagonists, Table 1) [h] | Human PK [1] [h]
1 | CC12CC3CC(C)(C1)CC(N)(C3)C2 [Memantine, 1-amino-3,5-dimethyladamantane] | 56 | 
2 | C#CCN[C@@H]1CCc2ccccc21 [N-propargyl-1(R)-aminoindan/Rasageline, N-propargyl-1(R)-aminoindan] |  | 1.8
3 | CC(N)C12CC3CC(CC(C3)C1)C2 (stereo not shown) [Rimantadine, 1-(1-aminoethyl)adamantane] | 25 | 
4 | Desmethyldeprenyl |  | 3.8 to 9.5
